Measured values taken from ChEMBL document CHEMBL1152335, “NMR strategy for unraveling structures of bioactive sponge-derived oxy-polyhalogenated diphenyl ethers” (J Nat Prod, 2009).

Target: Induced myeloid leukemia cell differentiation protein Mcl-1 (Homo sapiens, UniProt Q07820)
Assay: Inhibition of Bak binding to Mcl-1 by FRET assay

Chain of Induced myeloid leukemia cell differentiation protein Mcl-1 (Q07820 whole entry): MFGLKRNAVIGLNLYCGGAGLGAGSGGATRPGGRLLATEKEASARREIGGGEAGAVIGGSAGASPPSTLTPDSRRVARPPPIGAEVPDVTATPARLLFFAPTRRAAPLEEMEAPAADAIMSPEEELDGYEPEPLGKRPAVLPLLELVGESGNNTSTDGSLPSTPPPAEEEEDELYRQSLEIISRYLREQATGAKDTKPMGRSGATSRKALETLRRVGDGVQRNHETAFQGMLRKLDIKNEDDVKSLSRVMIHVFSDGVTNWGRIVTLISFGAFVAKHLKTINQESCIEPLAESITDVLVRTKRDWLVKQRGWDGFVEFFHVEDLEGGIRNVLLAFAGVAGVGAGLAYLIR

Row | SMILES | IC50
1 | COc1c(Br)c(Br)cc(Br)c1Oc1cc(Br)cc(Br)c1O | > 16.4 µM
2 | Oc1c(Br)cc(Br)cc1Oc1c(O)c(Br)cc(Br)c1Br | > 16.8 µM
3 | Oc1c(Br)c(Br)cc(Br)c1Oc1ccc(Br)cc1Br | > 17.2 µM
4 | Oc1c(Br)cc(Br)cc1Oc1c(O)c(Br)c(Br)c(Br)c1Br | > 14.8 µM
5 | Oc1c(Br)cc(Br)cc1Oc1c(Br)cc(Br)c(Br)c1O | > 16.8 µM
6 | Oc1cc(Br)cc(Br)c1Oc1ccc(Br)cc1Br | 4.78 µM
7 | Oc1c(Br)cc(Br)cc1Oc1cc(Br)c(Br)c(Br)c1O | > 16.8 µM
8 | Oc1cc(Br)c(Br)c(Br)c1Oc1cc(Br)cc(Br)c1O | > 16.8 µM
